Laboratory results as given in ChEMBL document CHEMBL4196029, “New MD2 inhibitors derived from curcumin with improved anti-inflammatory activity” (Eur J Med Chem, 2018).
Calls of active or inactive are those of the source. No cut-off for these calls is given here.

What was measured:
[1] = Chemical stability in pH 7.4 phosphate buffer at 20 uM measured at 5 mins time intervals for 25 mins by UV absorbance spectroscopic method; format: physicochemical; conditions: pH 7.4, 25 min
Peritoneal macrophage [2] = experiment: Anti-inflammatory activity in C57BL/6 mouse primary peritoneal macrophages assessed as inhibition of LPS-induced IL-6 secretion at 10 uM preincubated for 30 mins followed by LPS addition measured after 24 hrs by ELISA relative to control; format: functional; conditions: C57BL/6, Peritoneal macrophage
Peritoneal macrophage [3] = experiment: Anti-inflammatory activity in C57BL/6 mouse primary peritoneal macrophages assessed as inhibition of LPS-induced IL-6 secretion at 1 to 10 uM preincubated for 30 mins followed by LPS addition measured after 24 hrs by ELISA; format: functional, cell-based
Peritoneal macrophage [4] = experiment: Anti-inflammatory activity in C57BL/6 mouse primary peritoneal macrophages assessed as inhibition of LPS-induced IL-6 secretion at 2.5 uM preincubated for 30 mins followed by LPS addition measured after 24 hrs by ELISA relative to control; format: functional; conditions: C57BL/6, Peritoneal macrophage
Peritoneal macrophage [5] = experiment: Anti-inflammatory activity in C57BL/6 mouse primary peritoneal macrophages assessed as inhibition of LPS-induced IL-6 secretion at 1 uM preincubated for 30 mins followed by LPS addition measured after 24 hrs by ELISA relative to control; format: functional; conditions: C57BL/6, Peritoneal macrophage
Peritoneal macrophage [6] = experiment: Inhibition of LPS-induced IL-6 mRNA expression in C57BL/6 mouse primary peritoneal macrophages at 10 uM preincubated for 30 mins followed by LPS addition measured after 24 hrs by qRT-PCR analysis; format: functional, cell-based
Peritoneal macrophage [7] = experiment: Inhibition of LPS-induced TNFalpha mRNA expression in C57BL/6 mouse primary peritoneal macrophages at 10 uM preincubated for 30 mins followed by LPS addition measured after 24 hrs by qRT-PCR analysis; format: functional, cell-based
Rattus norvegicus [8] = experiment: Anti-inflammatory activity in Sprague-Dawley rat model of LPS-induced acute lung injury assessed as reduction in macrophage mobilization to lungs by measuring tissue content of CD68 at 20 mg/kg, po administered daily for 1 week followed by LPS addition at 30 mins post last dose measured after 6 hrs by DAB staining based light microscopic method; format: functional, organism-based
RAW264.7 = experiment: Binding affinity to MD2 in […] cells assessed as inhibition of LPS-induced TLR4-MD2 complex dimerization at 10 uM by co-immunoprecipitation assay; format: cell-based
[9] = target: Interleukin-1 receptor-associated kinase 1 (Homo sapiens) (UniProt P51617); experiment: Inhibition of recombinant human N-terminal GST-tagged IRAK1 (194 to 712 residues) expressed in baculovirus expression system at 10 uM after 1 hr by caliper mobility shift assay relative to control
Sequence of Interleukin-1 receptor-associated kinase 1 (Homo sapiens) (P51617 whole entry, looked up, the tested form may be a part): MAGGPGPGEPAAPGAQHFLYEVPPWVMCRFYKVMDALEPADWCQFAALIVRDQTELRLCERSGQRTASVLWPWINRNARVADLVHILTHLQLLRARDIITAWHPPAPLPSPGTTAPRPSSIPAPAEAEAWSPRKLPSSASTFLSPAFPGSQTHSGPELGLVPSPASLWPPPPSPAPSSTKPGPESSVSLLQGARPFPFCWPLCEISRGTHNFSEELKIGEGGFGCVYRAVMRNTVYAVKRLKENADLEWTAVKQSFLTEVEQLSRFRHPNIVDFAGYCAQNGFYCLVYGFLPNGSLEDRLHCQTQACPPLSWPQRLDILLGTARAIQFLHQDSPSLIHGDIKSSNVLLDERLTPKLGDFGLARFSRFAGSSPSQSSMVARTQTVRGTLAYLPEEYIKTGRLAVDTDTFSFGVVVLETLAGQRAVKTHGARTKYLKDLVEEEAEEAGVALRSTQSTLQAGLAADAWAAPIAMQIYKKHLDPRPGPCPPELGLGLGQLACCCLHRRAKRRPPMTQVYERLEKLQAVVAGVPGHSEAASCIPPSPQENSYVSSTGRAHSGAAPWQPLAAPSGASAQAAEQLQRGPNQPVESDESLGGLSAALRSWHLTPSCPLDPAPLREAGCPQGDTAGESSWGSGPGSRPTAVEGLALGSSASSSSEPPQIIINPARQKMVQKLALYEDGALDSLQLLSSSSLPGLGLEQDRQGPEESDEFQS

[10] = target: Interleukin-1 receptor-associated kinase 1 (Homo sapiens) (UniProt P51617); experiment: Inhibition of recombinant human N-terminal GST-tagged IRAK1 (194 to 712 residues) expressed in baculovirus expression system at 1 uM after 1 hr by caliper mobility shift assay relative to control
Rattus norvegicus [11] = experiment: Anti-inflammatory activity in Sprague-Dawley rat model of LPS-induced acute lung injury assessed as reduction in IL-1beta mRNA level in lungs at 20 mg/kg, po administered daily for 1 week followed by LPS addition at 30 mins post last dose measured after 6 hrs by qRT-PCR method; format: functional, organism-based
Rattus norvegicus [12] = experiment: Anti-inflammatory activity in Sprague-Dawley rat model of LPS-induced acute lung injury assessed as reduction in TNFalpha level in BALF at 20 mg/kg, po administered daily for 1 week followed by LPS addition at 30 mins post last dose measured after 6 hrs by ELISA; format: functional, organism-based
Rattus norvegicus [13] = experiment: Anti-inflammatory activity in Sprague-Dawley rat model of LPS-induced acute lung injury assessed as reduction in TNFalpha level in serum at 20 mg/kg, po administered daily for 1 week followed by LPS addition at 30 mins post last dose measured after 6 hrs by ELISA; format: functional, organism-based
Rattus norvegicus [14] = experiment: Anti-inflammatory activity in Sprague-Dawley rat model of LPS-induced acute lung injury assessed as reduction in ICAM1 mRNA level in lungs at 20 mg/kg, po administered daily for 1 week followed by LPS addition at 30 mins post last dose measured after 6 hrs by qRT-PCR method; format: functional, organism-based
Rattus norvegicus [15] = experiment: Anti-inflammatory activity in Sprague-Dawley rat model of LPS-induced acute lung injury assessed as reduction in VCAM1 mRNA level in lungs at 20 mg/kg, po administered daily for 1 week followed by LPS addition at 30 mins post last dose measured after 6 hrs by qRT-PCR method; format: functional, organism-based

Question: Which Stability [1] does the source give for `COc1cc(/C=C2\COC/C(=C\c3cc(OC)c(OC)c(OC)c3)C2=O)cc(OC)c1OC` here?
Answer: Stable

Question: And the inhibition at 10 µM (Peritoneal macrophage [2])?
Answer: > 90%

Question: What about the inhibition (Peritoneal macrophage [3]) of the same compound?
Answer: Active

Question: And the inhibition at 2.5 µM (Peritoneal macrophage [4])?
Answer: > 50%

Question: What about the inhibition at 1 µM (Peritoneal macrophage [5]) of the same compound?
Answer: > 90%

Question: And the inhibition (Peritoneal macrophage [6])?
Answer: Active

Question: What about the inhibition (Peritoneal macrophage [7]) of the same compound?
Answer: Active

Question: What about the Activity (Rattus norvegicus [8]) of the same compound?
Answer: Active

Question: And the inhibition (RAW264.7)?
Answer: Active

Question: What about the inhibition [9] of the same compound?
Answer: 3.6%

Question: And the inhibition [10]?
Answer: 8.7%

Question: Which results are given for `COc1cc(/C=C2\CN(C)C/C(=C\c3cc(OC)c(OC)c(OC)c3)C2=O)cc(OC)c1OC`?
Answer: Activity (Rattus norvegicus [11]): Active; Stability [1]: Stable; inhibition at 10 µM (Peritoneal macrophage [2]): > 90%; inhibition (Peritoneal macrophage [3]): Active; inhibition at 2.5 µM (Peritoneal macrophage [4]): > 50%; inhibition at 1 µM (Peritoneal macrophage [5]): > 90%; inhibition (Peritoneal macrophage [6]): Active; inhibition (Peritoneal macrophage [7]): Active; Activity (Rattus norvegicus [8]): Active; Activity (Rattus norvegicus [12]): Active; Activity (Rattus norvegicus [13]): Active; Activity (Rattus norvegicus [14]): Active; Activity (Rattus norvegicus [15]): Active; inhibition (RAW264.7): Active; inhibition [9]: 0.5%; inhibition [10]: 8.7%
